Common to all, as to experiment: NCI tumour cell line growth inhibition, 48 h
Assay [1] concerns LXFL 529 NSCLC.
Assay [2] deals with RXF-631 renal.
In assay [3] the test system is P388 leukemia.
The test system of assay [4] is P388/ADR leukemia.
For assay [5], the system named is SN12K1 renal.

The values below come from PubChem BioAssay (NCI).

“And” between values parts separate entries of the source, which are not always exact repeats. Equal entries are not always repeated.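 These data come from cells grown in 96-well plates and exposed to compound for 48 hours at five concentrations. GI50 = concentration required for 50% inhibition of growth. Definition used: TGI = concentration required for complete inhibition of growth.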

Turning to `CCOC(=O)C(C)OC(=O)c1ccc(C)cc1` (centres undefined), the TGI in assay [1] and in assay [2] was more than 100 µM in each case.

As to `O=CC(O)C(O)C(O)COc1cc(CO)cc2c1C(=O)c1ccccc1C2=O` (centres undefined), the TGI in assay [1] and in assay [2] was more than 100 µM each time.

For the molecule `O=c1oc2c(ccc3occc32)c(N2CCCCC2)c1-c1ccccc1`, the TGI in assay [3], in assay [4] and in assay [5] was more than 100 µM each time.

As for `CCN(CC)/[N+]([O-])=N/OC`, the TGI in assay [1] is more than 100 µM.

`CCOC(=O)C(=CNC(Cc1c[nH]c2ccccc12)C(=O)OC)C(=O)OCC` (centres undefined): the TGI in assay [1] and in assay [2] was more than 100 µM throughout.

With `COC(=N)C(C)C`, the TGI in assay [1] was more than 100 µM.

As for `C=C1CCCC(C)(C)[C@@H]1CC/C(C)=C/Cn1c2cccc(=O)c-2nc2ccccc21`, the TGI in assay [3] is more than 100 µM. In assay [5], the GI50 was 2.89 µM; the TGI is 15.5 µM and 13.2 µM.
